Results published in patent US10758609B2, “Cross-reactive T-cell epitopes of HIV, SIV, and FIV for vaccines in humans and cats” (priority 2015, dated 2020).
Entries after “also recorded” stand apart in the source; their conditions may differ.

How the values were obtained:
[1] = test system: PBMC from cat SBA; format: cell-based; details: PBMC of cat SBA, 14 wk post-challenge boost
[2] = test system: FIVFC1; assay: FIV enhancement and suppression (E/S) analysis of in vitro FIV infection of feline PBMC; format: cell-based, feline immunodeficiency virus; details: for Direct effect on in vitro FIV infection (enhancement/suppression): 7 μg/mL peptide or MAP, PBMC of uninfected SPF cats, versus virus control; for FIV Test E/S (enhancer/suppressor analysis): FIV peptides, in vitro FIV infection of uninfected cat PBMC
Protocol: FIV viral enhancement or suppression was determined using a 48-well modification of the method described for detecting FIV enhancing activity of IFNγ and FIV suppressive activity of IFNα [37]. […] MAP1c contained four branched chains of peptide Fp4-3. T-cell mitogen concanavalin A (ConA) at 4 μg/mL was used as an infection enhancing control. Six hours after the culturing with peptide, MAP, or ConA, varying dilutions of FIVFC1 were added to the wells. Seventy-two hours later the cells were re-cultured in fresh culture media with ConA-stimulated autologous PBMC (0.25-0.5×10^6) using the same amount of corresponding peptide, MAP, ConA or media. On Day 7, 10, and 13 of culture, 0.5 mL of culture fluid was collected and 0.5 mL of fresh media added to maintain a consistent volume. The harvested culture samples were analyzed for FIV titer using the previously described RT assay. The results are shown as the end-point dilution titer from two studies using PBMC from different SPF donors.
Statistical analysis. The statistically significant differences between the end-point dilution titers of the peptide or MAP culture samples and either the virus control samples or specific MAP culture samples were calculated using a paired Student t-test with a two-tailed distribution (SigmaPlot version 11.0). Statistical comparisons between pre and post-vaccination(s) were similarly performed. The comparison was considered statistically significant when p<0.05.

[3] = test system: CD8^+ T cells from HIV^+ subjects; assay: FACS-based intracellular staining (ICS) for cytolysin (perforin) and cytotoxins (GrzA, GrzB) in CD8+ T cells; details: HIV+ human subjects; for Cyto: CD8+ T-cell cytotoxins (perforin, GrzA & B), frequency of responders: FIV epitope peptide; for Cyto (cytolysin/cytotoxin production), frequency of responders: FIV peptides
In short: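 Peptides tested with PBMC and T cells from HIV^+ subjects, some on ART. CFSE proliferation positive at ≥2% CFSE^low CD4^+ or CD8^+ T cells; intracellular perforin, granzyme A and B staining by FACS positive at ≥0.2%.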

Sequence	GrzA mRNA [1]	GrzB mRNA [1]	IFNγ mRNA [1]	IL2 mRNA [1]	perforin mRNA [1]	Direct effect on in vitro FIV infection (enhancement/suppression) [2]	Direct effect on in vitro FIV infection (enhancement/suppression) ([2]; listed as Fp4-3 real)	FIV Test E/S (enhancer/suppressor analysis) [2]	Cyto: CD8+ T-cell cytotoxins (perforin, GrzA & B), frequency of responders [3]	Cyto (cytolysin/cytotoxin production), frequency of responders [3]
PTDMATLIMAAPGCA [Fp4-3]	low	no detectable levels	high	low	no detectable levels	significantly enhanced FIV infection	enhancing	↑	–	–
KKKSGKWRMLIDFRV [FRT3-3]	–	–	–	–	–	significant enhancement; also recorded: enhanced in vitro FIV infection; also recorded: enhance/	–	↑	++++ (>54% (++++))	++++ (>54% (++++))
WRMLIDFRVLNKL [FRT3-4]	–	–	–	–	–	significantly suppressed FIV infection; also recorded: suppress	–	↓	++++ (>54% (++++))	++++ (>54% (++++))
